Assay results as given in patent publication US9708314B2, “Heterocyclic amide compound” (NISSAN CHEMICAL INDUSTRIES, LTD., priority 2013, dated 2017).

Tests used:
Format in all cases: in vivo
Galium spurium = assay: Test Example 4: herbicidal effect by application to foliage (diluvial soil, plastic box); conditions: foliage application, 320 g/ha
Outline: (§1)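 Scores run from 0 (herbicidal ratio ≤5%) to 5 (≥90%, almost fully withered) and were assessed three weeks after foliar spraying. Seedlings had been raised for 14 days at 25-30° C in sterilized diluvial soil before treatment, with the emulsion diluted in water to the stated g/ha dose.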

Avena fatua = assay: as above; conditions: foliage application, 320 g/ha
Outline: as §1

Stellaria media = assay: as above; conditions: foliage application, 320 g/ha
Outline: as §1

Abutilon theophrasti = assay: as above; conditions: foliage application, 320 g/ha
Outline: as §1

Alopecurus myosuroides = assay: as above; conditions: foliage application, 320 g/ha
Outline: as §1

Amaranthus retroflexus = assay: as above; conditions: foliage application, 320 g/ha
Outline: as §1

Lolium multiflorum Lam. = assay: as above; conditions: foliage application, 320 g/ha
Outline: as §1

Apera spica-venti. = assay: as above; conditions: foliage application, 320 g/ha
Outline: as §1

Chenopodium album = assay: as above; conditions: foliage application, 320 g/ha
Outline: as §1

[1] = tested on: Echinochloa crus-galli var. crus-galli; assay: as above; conditions: foliage application, 320 g/ha
Outline: as §1

Digitaria ciliaris = assay: as above; conditions: foliage application, 320 g/ha
Outline: as §1

Veronica persica = assay: as above; conditions: foliage application, 320 g/ha
Outline: as §1

Setaria viridis = assay: as above; conditions: foliage application, 320 g/ha
Outline: as §1

[2] = tested on: directly sowed Oryza sativa; assay: Test Example 3: effect on crop by application to foliage (Wagner pot, water depth 0.1-0.5 cm); conditions: Nineteenth Table; application to foliage; application herbicide amount 320 g/ha
Outline: (§2)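 Rice-field weeds and directly sown rice were grown 14 days in flooded alluvial soil (water depth 0.1–0.5 cm) at 25–30 °C in a greenhouse. An emulsion formulation diluted to the stated g/ha rate was sprayed onto stems and leaves. Effects were scored on a 0–5 scale (herbicidal ratio bands) three weeks after treatment.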

Cyperus difformis = assay: Test Example 3: herbicidal effect by application to foliage (Wagner pot, water depth 0.1-0.5 cm); conditions: Nineteenth Table; application to foliage; application herbicide amount 320 g/ha
Outline: as §2

Leptochloa chinensis = assay: as above; conditions: Nineteenth Table; application to foliage; application herbicide amount 320 g/ha
Outline: as §2

[3] = tested on: Echinochloa crus-galli var. crus-galli; assay: as above; conditions: Nineteenth Table; application to foliage; application herbicide amount 320 g/ha
Outline: as §2

| Compound | Q (Galium spurium) herbicidal effect grade (Galium spurium) | I (Avena fatua) herbicidal effect grade (Avena fatua) | P (Stellaria media) herbicidal effect grade (Stellaria media) | M (Abutilon theophrasti) herbicidal effect grade (Abutilon theophrasti) | J (Alopecurus myosuroides) herbicidal effect grade (Alopecurus myosuroides) | N (Amaranthus retroflexus) herbicidal effect grade (Amaranthus retroflexus) | K (Lolium multiflorum Lam.) herbicidal effect grade (Lolium multiflorum Lam.) | L (Apera spica-venti.) herbicidal effect grade (Apera spica-venti.) | O (Chenopodium album) herbicidal effect grade (Chenopodium album) | H (Echinochloa crus-galli var. crus-galli) herbicidal effect grade [1] | F (Digitaria ciliaris) herbicidal effect grade (Digitaria ciliaris) | R (Veronica persica) herbicidal effect grade (Veronica persica) | G (Setaria viridis) herbicidal effect grade (Setaria viridis) | b (effect on crop grade) [2] | E (herbicidal effect grade) (Cyperus difformis) | D (herbicidal effect grade) (Leptochloa chinensis) | H (herbicidal effect grade) [3] |
| --- | --- | --- | --- | --- | --- | --- | --- | --- | --- | --- | --- | --- | --- | --- | --- | --- | --- |
| Cn1nnnc1NC(=O)c1ccc(C(F)(F)F)n2c(CCS(C)(=O)=O)nnc12 [2-059] | 5 (Herbicidal ratio of 90% or more (almost completely withered)) | 4 (Herbicidal ratio of 70% or more and less than 90%) | 5 (Herbicidal ratio of 90% or more (almost completely withered)) | 5 (Herbicidal ratio of 90% or more (almost completely withered)) | 4 (Herbicidal ratio of 70% or more and less than 90%) | 5 (Herbicidal ratio of 90% or more (almost completely withered)) | 4 (Herbicidal ratio of 70% or more and less than 90%) | 4 (Herbicidal ratio of 70% or more and less than 90%) | 5 (Herbicidal ratio of 90% or more (almost completely withered)) | 5 (Herbicidal ratio of 90% or more (almost completely withered)) | 5 (Herbicidal ratio of 90% or more (almost completely withered)) | 5 (Herbicidal ratio of 90% or more (almost completely withered)) | 5 (Herbicidal ratio of 90% or more (almost completely withered)) | 5 (Herbicidal ratio of 90% or more (almost completely withered)) | 5 (Herbicidal ratio of 90% or more (almost completely withered)) | 5 (Herbicidal ratio of 90% or more (almost completely withered)) | 5 (Herbicidal ratio of 90% or more (almost completely withered)) |
| Cn1nnnc1NC(=O)c1ccc(C(F)(F)F)n2c(-c3ccc(Cl)nc3)nnc12 [2-060] | 4 (Herbicidal ratio of 70% or more and less than 90%) | 4 (Herbicidal ratio of 70% or more and less than 90%) | 5 (Herbicidal ratio of 90% or more (almost completely withered)) | 5 (Herbicidal ratio of 90% or more (almost completely withered)) | 3 (Herbicidal ratio of 40% or more and less than 70%) | 5 (Herbicidal ratio of 90% or more (almost completely withered)) | 3 (Herbicidal ratio of 40% or more and less than 70%) | 4 (Herbicidal ratio of 70% or more and less than 90%) | 5 (Herbicidal ratio of 90% or more (almost completely withered)) | 5 (Herbicidal ratio of 90% or more (almost completely withered)) | 5 (Herbicidal ratio of 90% or more (almost completely withered)) | 5 (Herbicidal ratio of 90% or more (almost completely withered)) | 5 (Herbicidal ratio of 90% or more (almost completely withered)) | 5 (Herbicidal ratio of 90% or more (almost completely withered)) | 5 (Herbicidal ratio of 90% or more (almost completely withered)) | 5 (Herbicidal ratio of 90% or more (almost completely withered)) | 5 (Herbicidal ratio of 90% or more (almost completely withered)) |
